Measurements as given in US11000033B2, “Ketone or oxime compound, and herbicide” (NISSAN CHEMICAL CORPORATION, priority 2014, dated 2021).

Key:
Format in all cases: in vivo
[1] = test system: Scirpus juncoides; experiment: Test Example 2: herbicidal activity, application during weed generation in submerged conditions (symbol B); settings: Table 23; application herbicide amount 320 g/ha; grade 0-5 by criteria of Test Example 1
Method in brief: (§1)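 Scoring of herbicidal effect took place 3 weeks after treatment, using the criteria of the earlier test. Treatment was water-surface application of diluted emulsifiable compound at a set dose. Plants were at one- to two-leaf stage in submerged alluvial soil (4 cm depth), greenhouse 25-30° C.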

[2] = test system: Monochoria vaginalis; experiment: Test Example 2: herbicidal activity, application during weed generation in submerged conditions (symbol C); settings: Table 23; application herbicide amount 320 g/ha; grade 0-5 by criteria of Test Example 1
Method in brief: as §1

[3] = test system: Leptochloa chinensis; experiment: Test Example 3: herbicidal effect by foliage application, Wagner pot (symbol D); settings: application herbicide amount 320 g/ha; for D (Leptochloa chinensis) herbicidal effect grade: Table 24
Method in brief: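 Foliar spray of a water-diluted emulsion at a predetermined herbicide amount, applied to 14-day-old plants. Seedlings were raised in flooded alluvial soil (0.1–0.5 cm water) at 25–30 °C in a greenhouse. Injury was rated after 3 weeks against fixed criteria.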

[4] = test system: Setaria viridis; experiment: Test Example 4: herbicidal effect by soil treatment (symbol G); settings: for Herbicidal effect grade, G: Setaria viridis / G (Setaria viridis) herbicidal effect grade: application herbicide amount 320 g/ha
Method in brief: (§2)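 Seeds were sown in sterilized diluvial soil, covered with about 1.5 cm of soil, and the soil surface was sprayed with a water-diluted emulsion of the compound at a predetermined rate. Plants grew in a greenhouse at 25° C. to 30° C.; effects were scored visually 3 weeks after application.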

[5] = test system: Veronica persica; experiment: Test Example 4: herbicidal effect by soil treatment (symbol R); settings: for Herbicidal effect grade, R: Veronica persica / R (Veronica persica) herbicidal effect grade: application herbicide amount 320 g/ha
Method in brief: as §2

[6] = test system: beet; experiment: Test Example 4: effect on crop by soil treatment (symbol f)
Method in brief: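 Soil-treatment setup: crop and weed seeds were spot-sown into sterilized diluvial soil, then buried beneath approximately 1.5 cm of it, and the boxes were housed in a 25–30° C. greenhouse.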

[7] = test system: Digitaria ciliaris; experiment: Test Example 5: herbicidal effect by foliage application, plastic box (symbol F); settings: 320 g/ha, 3 weeks after application
Method in brief: (§3)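 Greenhouse foliar test: seedlings at 14 days, grown 25° C. to 30° C. in sterilized diluvial soil; compound applied as an aqueous dilution of an emulsion; response read 3 weeks after spraying.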

[8] = test system: Avena fatua; experiment: Test Example 5: herbicidal effect by foliage application, plastic box (symbol I); settings: 320 g/ha, 3 weeks after application
Method in brief: as §3

[9] = test system: Alopecurus myosuroides; experiment: Test Example 5: herbicidal effect by foliage application, plastic box (symbol J); settings: 320 g/ha, 3 weeks after application
Method in brief: as §3

[10] = test system: beet; experiment: Test Example 5: effect on crop by foliage application, plastic box (symbol f); settings: 320 g/ha, 3 weeks after application
Method in brief: (§4)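 Greenhouse test at 25° C. to 30° C. Seeds of crops and weeds were spot-sown in boxes of sterilized diluvial soil under roughly 1.5 cm soil cover, then grown for foliage treatment.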

[11] = test system: rapeseed; experiment: Test Example 5: effect on crop by foliage application, plastic box (symbol g); settings: 320 g/ha, 3 weeks after application
Method in brief: as §4

[12] = test system: Echinochloa oryzacola Vasing.; experiment: Test Example 1: herbicidal activity, application before weed generation in submerged conditions (symbol A); settings: application herbicide amount 320 g/ha
Method in brief: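 Pre-emergence, paddy conditions: emulsifiable formulation diluted in water, dosed onto floodwater (4 cm depth) on sowing day. Alluvial soil; weeds sown mixed; rice transplanted at 2.5-leaf stage. Greenhouse 25–30 °C, 3 wk. Score 0–5 (5 = ≥90% kill, 0 = ≤5%).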

[13] = application herbicide amount 320 g/ha

Structure (SMILES)	Herbicidal effect grade, B: Scirpus juncoides [1]	Herbicidal effect grade, G: Setaria viridis [4]	Herbicidal effect grade, R: Veronica persica [5]	Effect on crop grade, f: beet [6, 13]	F: Digitaria ciliaris, herbicidal effect grade [7]	I: Avena fatua, herbicidal effect grade [8]	J: Alopecurus myosuroides, herbicidal effect grade [9]	f: beet, effect on crop grade [10]	g: rapeseed, effect on crop grade [11]	Herbicidal effect grade, A: Echinochloa oryzacola Vasing. [12]	herbicidal effect on D (Leptochloa chinensis), grade 0-5 [3]	F: Digitaria ciliaris, herbicidal effect (criteria of Test Example 1) [7]	I: Avena fatua, herbicidal effect (criteria of Test Example 1) [8]	J: Alopecurus myosuroides, herbicidal effect (criteria of Test Example 1) [9]	f: beet, effect on crop (criteria of Test Example 1) [10]	g: rapeseed, effect on crop (criteria of Test Example 1) [11]	also measured
CC(CC1CC(O)=C(c2c(C)cc(Br)cc2C)C1=O)=NOCC(=O)N(C)C (mixture of isomers) [9-029]	0 (Herbicidal ratio of 5% or lower (almost no effect))	4 (Herbicidal ratio of 70% or higher and lower than 90%)	0 (Herbicidal ratio of 5% or lower (almost no effect))	0 (Herbicidal ratio of 5% or lower (almost no effect))	3 (Herbicidal ratio of 40% or higher and lower than 70%)	5 (Herbicidal ratio of 90% or more (almost completely withered))	1 (Herbicidal ratio of 5% or higher and lower than 20%)	0 (Herbicidal ratio of 5% or lower (almost no effect))	4 (Herbicidal ratio of 70% or higher and lower than 90%)	–	–	–	–	–	–	–	Herbicidal effect grade, C: Monochoria vaginalis [2]: 0 (Herbicidal ratio of 5% or lower (almost no effect)); D (Leptochloa chinensis) herbicidal effect grade [3]: 4 (Herbicidal ratio of 70% or higher and lower than 90%)
CON=C(CC1CC(OC(=O)COc2ccccc2)=C(c2c(C)cc(C)cc2C)C1=O)C1CC1 (stereo not shown) [1-063]	2 (Herbicidal ratio of 20% or higher and lower than 40%)	–	–	–	1 (Herbicidal ratio of 5% or higher and lower than 20%)	5 (Herbicidal ratio of 90% or more (almost completely withered))	5 (Herbicidal ratio of 90% or more (almost completely withered))	0 (Herbicidal ratio of 5% or lower (almost no effect))	4 (Herbicidal ratio of 70% or higher and lower than 90%)	5 (Herbicidal ratio of 90% or more (almost completely withered))	5 (Herbicidal ratio of 90% or more (almost completely withered))	–	–	–	–	–	Herbicidal effect grade, C: Monochoria vaginalis [2]: 0 (Herbicidal ratio of 5% or lower (almost no effect)); G (Setaria viridis) herbicidal effect grade [4]: 5 (Herbicidal ratio of 90% or more (almost completely withered)); R (Veronica persica) herbicidal effect grade [5]: 0 (Herbicidal ratio of 5% or lower (almost no effect))
CON=C(C)CC1CC(OC(=O)COc2cccc(C#N)c2)=C(c2c(C)cc(C)cc2C)C1=O (stereo not shown) [1-074]	4 (Herbicidal ratio of 70% or higher and lower than 90%)	–	–	–	–	–	–	–	–	5 (Herbicidal ratio of 90% or more (almost completely withered))	5 (Herbicidal ratio of 90% or more (almost completely withered))	–	–	–	–	–	G (Setaria viridis) herbicidal effect grade [4]: 5 (Herbicidal ratio of 90% or more (almost completely withered)); R (Veronica persica) herbicidal effect grade [5]: 0 (Herbicidal ratio of 5% or lower (almost no effect)); f (beet) effect on crop grade [6, 13]: 0 (Herbicidal ratio of 5% or lower (almost no effect)); F: Digitaria ciliaris, herbicidal effect (criteria 0-5) [7]: 5 (Herbicidal ratio of 90% or more (almost completely withered)); I: Avena fatua, herbicidal effect (criteria 0-5) [8]: 5 (Herbicidal ratio of 90% or more (almost completely withered)); J: Alopecurus myosuroides, herbicidal effect (criteria 0-5) [9]: 5 (Herbicidal ratio of 90% or more (almost completely withered)); f: beet, effect on crop (criteria 0-5) [10]: 0 (Herbicidal ratio of 5% or lower (almost no effect)); g: rapeseed, effect on crop (criteria 0-5) [11]: 4 (Herbicidal ratio of 70% or higher and lower than 90%)
C=CC(CC1CC(O)=C(c2c(C)cc(C)cc2C)C1=O)=NOC (stereo not shown) [1-086]	0 (Herbicidal ratio of 5% or lower (almost no effect))	–	–	–	–	–	–	–	–	5 (Herbicidal ratio of 90% or more (almost completely withered))	4 (Herbicidal ratio of 70% or higher and lower than 90%)	–	–	–	–	–	G: Setaria viridis, herbicidal effect grade ([4]; 320 g/ha): 4 (Herbicidal ratio of 70% or higher and lower than 90%); R: Veronica persica, herbicidal effect grade ([5]; 320 g/ha): 0 (Herbicidal ratio of 5% or lower (almost no effect)); f: beet, effect grade on crop ([6]; 320 g/ha): 0 (Herbicidal ratio of 5% or lower (almost no effect)); F: Digitaria ciliaris, herbicidal effect (criteria 0-5) [7]: 0 (Herbicidal ratio of 5% or lower (almost no effect)); I: Avena fatua, herbicidal effect (criteria 0-5) [8]: 4 (Herbicidal ratio of 70% or higher and lower than 90%); J: Alopecurus myosuroides, herbicidal effect (criteria 0-5) [9]: 4 (Herbicidal ratio of 70% or higher and lower than 90%); f: beet, effect on crop (criteria 0-5) [10]: 0 (Herbicidal ratio of 5% or lower (almost no effect)); g: rapeseed, effect on crop (criteria 0-5) [11]: 3 (Herbicidal ratio of 40% or higher and lower than 70%)
CC(=O)CC1CC(O)=C(c2c(C)cc(Oc3ccccc3)cc2C)C1=O (stereo not shown) [7-014]	–	2 (Herbicidal ratio of 20% or higher and lower than 40%)	0 (Herbicidal ratio of 5% or lower (almost no effect))	0 (Herbicidal ratio of 5% or lower (almost no effect))	–	–	–	–	–	–	5 (Herbicidal ratio of 90% or more (almost completely withered))	5 (Herbicidal ratio of 90% or more (almost completely withered))	1 (Herbicidal ratio of 5% or higher and lower than 20%)	0 (Herbicidal ratio of 5% or lower (almost no effect))	0 (Herbicidal ratio of 5% or lower (almost no effect))	1 (Herbicidal ratio of 5% or higher and lower than 20%)	–
CC(=O)CC1CC(O)=C(c2c(C)cc(-c3ccc(OC(F)(F)F)cc3)cc2C)C1=O (stereo not shown) [7-016]	–	2 (Herbicidal ratio of 20% or higher and lower than 40%)	0 (Herbicidal ratio of 5% or lower (almost no effect))	0 (Herbicidal ratio of 5% or lower (almost no effect))	–	–	–	–	–	–	5 (Herbicidal ratio of 90% or more (almost completely withered))	0 (Herbicidal ratio of 5% or lower (almost no effect))	0 (Herbicidal ratio of 5% or lower (almost no effect))	0 (Herbicidal ratio of 5% or lower (almost no effect))	0 (Herbicidal ratio of 5% or lower (almost no effect))	0 (Herbicidal ratio of 5% or lower (almost no effect))	–
CC(=O)CC1CC(O)=C(c2c(C)cc(-c3ncccn3)cc2C)C1=O (stereo not shown) [7-017]	–	0 (Herbicidal ratio of 5% or lower (almost no effect))	0 (Herbicidal ratio of 5% or lower (almost no effect))	0 (Herbicidal ratio of 5% or lower (almost no effect))	–	–	–	–	–	–	5 (Herbicidal ratio of 90% or more (almost completely withered))	5 (Herbicidal ratio of 90% or more (almost completely withered))	0 (Herbicidal ratio of 5% or lower (almost no effect))	2 (Herbicidal ratio of 20% or higher and lower than 40%)	0 (Herbicidal ratio of 5% or lower (almost no effect))	0 (Herbicidal ratio of 5% or lower (almost no effect))	–
CC#Cc1cc(C)c(C2=C(OC(=O)COc3ccccc3)CC(CC(=NOC)C(C)C)C2=O)c(C)c1 (stereo not shown) [9-003]	4 (Herbicidal ratio of 70% or higher and lower than 90%)	5 (Herbicidal ratio of 90% or more (almost completely withered))	0 (Herbicidal ratio of 5% or lower (almost no effect))	0 (Herbicidal ratio of 5% or lower (almost no effect))	5 (Herbicidal ratio of 90% or more (almost completely withered))	4 (Herbicidal ratio of 70% or higher and lower than 90%)	5 (Herbicidal ratio of 90% or more (almost completely withered))	1 (Herbicidal ratio of 5% or higher and lower than 20%)	4 (Herbicidal ratio of 70% or higher and lower than 90%)	5 (Herbicidal ratio of 90% or more (almost completely withered))	–	–	–	–	–	–	D (Leptochloa chinensis) herbicidal effect grade [3]: 5 (Herbicidal ratio of 90% or more (almost completely withered))
